# Measured values: patent US20240415894A1, “MITOCHONDRIAL AUGMENTATION THERAPY WITH STEM CELLS ENRICHED WITH FUNCTIONAL MITOCHONDRIA” (Minovia Therapeutics Ltd., priority 2018, published 2024)
# Tested on: Mouse fibroblast cells (3T3)
# Assay: ATP level in Rotenone-treated mouse fibroblast cells (ATPlite kit)
# Format: cell-based
# Settings: 0.5 μM Rotenone for 4 hours; vs control cells
# Description: Mouse fibroblast cells (104, 3T3) were either not treated (control) or treated with 0.5 μM Rotenone (Rotenone, mitochondrial complex I irreversible inhibitor, CAS number 83-79-4) for 4 hours, washed, and further treated with 0.02 mg/ml mouse placental mitochondria (Rotenone+Mitochondria) for 3 hours. The cells were washed and ATP level was determined using the Perkin Elmer ATPlite kit (FIG. 2), as previously shown in WO 2016/135723.
structure (smiles),measurement,value
C=C(C)[C@H]1Cc2c(ccc3c2O[C@@H]2COc4cc(OC)c(OC)cc4[C@@H]2C3=O)O1 [Rotenone],decrease of ATP levels,about 50%
